# Data reported in patent publication US9789119B2, “Cognitive function” (priority 2010, dated 2017).
# Entries after “also recorded” stand apart in the source; their conditions may differ.
# What was measured:
# Ts65Dn mice = details: short-term administration of low doses; cited from earlier work
# [1] = test system: Ts65Dn mouse model of Down syndrome; assay: Novel Object Recognition (NOR) task in Ts65Dn mice; assay type: in vivo; details: 0.3 mg/kg IP daily for two weeks, NOR two weeks after treatment end
# Description: In this case, the effect of the noncompetitive GABAA receptor antagonist pentylenetetrazole (PTZ) on cognitive function in the Ts65Dn mouse model of Down syndrome was assessed with the Novel Object Recognition (NOR) task.
# (§1) The NOR task is based on the established finding that mice preferentially explore novel objects relative to remembered objects. The test consists of a training session and a testing session. During the training session, a mouse is allowed 15 minutes to explore freely a training chamber that contains two objects. The amount of time the mouse uses to explore each object is quantified using video monitoring. The mouse is removed from the training session for 24 hours, during which time one of the objects in the training chamber is replaced with a novel object. The mouse is returned to the training chamber for the testing session, during which video monitoring is again used to quantify the amount of time the mouse uses to explore each object.
# Ts65Dn mice and wild-type (2N) controls were maintained on a 12:12 light:dark (LD) cycle. At three months of age, their NOR task performance was determined. The animals then received daily intraperitoneal (IP) injections of pentylenetetrazole (PTZ; 0.3 mg/kg) for two weeks (“treatment”). […] Two weeks after treatment end, the NOR task performance of all mice was again determined. […]
# wild-type (2N) mice = assay: Novel Object Recognition (NOR) task in wild-type (2N) mice; assay type: in vivo, mouse; details: 0.3 mg/kg IP daily for two weeks, light cycle (FIG. 1 panel B)
# Description: as §1
# Ts65Dn mice and wild-type (2N) controls were maintained on a 12:12 light:dark (LD) cycle. At three months of age, their NOR task performance was determined. The animals then received daily intraperitoneal (IP) injections of pentylenetetrazole (PTZ; 0.3 mg/kg) for two weeks (“treatment”). A control group received vehicle control (saline; NaCl) only for the same duration. The IP injections occurred near the middle of the light phase or during the dark phase of a LD cycle. Two weeks after treatment end, the NOR task performance of all mice was again determined. All NOR tasks were performed during the light phase of a LD cycle. […]
Compound,cognitive function (Ts65Dn mice),hippocampal LTP induction (Ts65Dn mice),performance in the Novel Object Recognition (NOR) task ([1]; dark phase (wakefulness)),performance in the Novel Object Recognition (NOR) task ([1]; middle of light phase (sleep)),time spent exploring objects in NOR task (wild-type (2N) mice)
"CC(C)(C)[C@]1(O)CC2OC(=O)CC23C(=O)OC2OC(=O)[C@H](O)C231 (stereo partly drawn) [BB, bilobalide]",improve in a long-lasting manner,improve in a long-lasting manner,,,
"C1CCc2nnnn2CC1 [PTZ, pentylenetetrazole]",improve in a long-lasting manner,improve in a long-lasting manner,some improvement relative to the saline-injected controls; also recorded: less effective in improving performance in the NOR task; also recorded: less effective in improving cognitive function,spent a significantly larger proportion of time of the testing session exploring the novel object; also recorded: normalizes performance in the Novel Object Recognition (NOR) task; also recorded: can improve cognition,more time on the new object during the testing session
picrotoxin [PTX],improve in a long-lasting manner,improve in a long-lasting manner,,,
